As a reminder, the IC50 is the concentration at which inhibition is half-maximal. A high value points to lower potency.

Residues, ends and D or L forms follow the SMILES beside them.

From patent publication US7989441B2, “Organic compounds” (Novartis AG, priority 2005, dated 2011) come the findings set out here.

Assay [1] has as its target T1, GST-BIR3 fusion containing amino acids 259-364 from CIAP1 (Homo sapiens, UniProt Q13490).
T1 construct: a GST-BIR3 fusion containing amino acids 259-364 from CIAP1 was used
Kind of assay: CIAP1 BIR3 Smac Elisa. The class given is binding. The settings on record: concentration which displaces half of GST-BIR3 signal, IAP not given. The method, then:
(§1) In order to measure the ability of the inventive compounds to bind the BIR3 peptide binding pocket, a solution phase assay on the FMAT or ELISA technology platform is utilized.
(§2) Compounds are incubated with GST-BIR3 fusion protein and biotinylated SMAC peptide (AVPFAQK) in stretavidin-coated 96-well plates. For XIAP BIR3 Smac Elisa, a GST-BIR3 fusion containing amino acids 248-358 from XIAP was used. For CIAP1 BIR3 Smac Elisa, a GST-BIR3 fusion containing amino acids 259-364 from CIAP1 was used. Following a 30-minute incubation, wells are extensively washed. The remaining GST-BIR3 fusion protein is monitored by ELISA assay involving first, incubation with goat anti-GST antibodies followed by washing and incubation with alkaline phosphatase conjugated anti-goat antibodies. Signal is amplified using Attophos (Promega) and read with Cytoflour Ex 450 nm/40 and Em 580 nm. IC50s correspond to concentration of compound which displaces half of GST-BIR3 signal. The IC50 for non-biotinylated Smac is 400 nM.

The subject of assay [2] is GST-BIR3 fusion protein (BIR3 peptide binding pocket). Kind of assay: FMAT solution phase assay: competition of GST-BIR3 off Smac peptide beads. As for the experimental part:
as §1
Biotinylated Smac 7-mer peptide (AVPIAQK, lysine ε-amino group is biotinylated) is immobilized on streptavidin coated beads. GST-BIR3 fusion protein is precipitated with FMAT beads and is detected using fluorescent tagged anti-GST antibodies. […] The IC50 for non-biotinylated Smac is 400 nM.

Assay [3] deals with T2, GST-BIR3 fusion containing amino acids 248-358 from XIAP (Homo sapiens, UniProt P98170).
T2 construct: a GST-BIR3 fusion containing amino acids 248-358 from XIAP was used
Kind of assay: XIAP BIR3 Smac Elisa. The class given is binding. To be noted: concentration which displaces half of GST-BIR3 signal, IAP not given. The method, then: as §1, §2

T2 sequence (P98170 248-358): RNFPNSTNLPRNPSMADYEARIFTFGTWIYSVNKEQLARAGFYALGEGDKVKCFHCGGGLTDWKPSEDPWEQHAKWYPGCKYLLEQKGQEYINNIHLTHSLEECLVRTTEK
T1 sequence (Q13490 259-364): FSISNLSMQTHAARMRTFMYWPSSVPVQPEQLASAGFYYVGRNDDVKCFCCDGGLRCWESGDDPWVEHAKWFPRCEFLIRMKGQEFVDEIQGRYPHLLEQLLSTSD

Consider `CC[C@H](C)[C@H](NC(=O)[C@@H]1CCCN1C(=O)[C@@H](NC(=O)[C@H](C)N)C(C)C)C(=O)N[C@@H](C)C(=O)N[C@@H](CCC(N)=O)C(=O)N[C@@H](CCCCN)C(=O)O` [non-biotinylated Smac] (H-AVPIAQK-OH; N-terminus and C-terminus assumed), for which the IC50 in assay [1] worked out at 400 nM; in assay [2] (FMAT, displacement of GST-BIR3 from biotinylated Smac 7-mer peptide (AVPIAQK) beads), 400 nM; in assay [3], 400 nM. Also, the “competing GST-BIR3 off the FMAT beads” value in assay [2] (FIG. 2) is given as “highly effective”.
